Results on eleven compounds are retold here after ChEMBL document CHEMBL1201862, “PubChem BioAssay data set” (2004).

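48-hour exposure; five concentrations; linearly interpolated endpoints. GI50: concentration for 50% inhibition of growth.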 Calls of active or inactive are those of the source. Rule as the data show it: active = GI50 up to about 1.1 µM and inactive = higher.

Among the test systems are SR; MCF7; SNB-19; SF-295; NCI-H226; CAKI-1; HCC 2998; SK-MEL-2; RXF 393; KM12; M14; OVCAR-8; UO-31; OVCAR-3; HCT-116; NCI-H522; K562; PC-3; U-251.
Common to all, as to assay: growth of human tumour cells (NCI), 48 h

With `O=S(=O)([N-]c1nc2ccccc2nc1-[n+]1ccccc1)c1ccccc1`, the GI50 is 14.9 µM (inactive) in the assay on SR; > 100 µM (inactive) in the assay with MCF7; > 100 µM (inactive) in the assay on SNB-19; > 100 µM (inactive) in the assay with SF-295; > 100 µM (inactive) in the assay on NCI-H226; > 100 µM (inactive) in the assay with CAKI-1. The GI50 with HCC 2998 was > 100 µM (inactive); in the assay on SK-MEL-2, > 100 µM (inactive); with RXF 393, > 100 µM (inactive); in the assay on KM12, > 100 µM (inactive); with M14, > 100 µM (inactive); in the assay with OVCAR-8, 68.5 µM (inactive). Also, the GI50 with UO-31 was > 100 µM (inactive); with OVCAR-3 it was > 100 µM (inactive); in the assay with HCT-116, > 100 µM (inactive); in the assay with NCI-H522, > 100 µM (inactive); in the assay on K562, 29.9 µM (inactive); in the assay with PC-3, > 100 µM (inactive).

Consider `C[C@H]1CCC/C=C/[C@@H]2C[C@H](OC3OC(CO)C(O)C(O)C3O)C[C@H]2[C@H](O)/C=C/C(=O)O1` (some centres undefined), for which the GI50 in the assay on SR is > 100 µM (inactive); in the assay with MCF7, 62.4 µM (inactive); with SNB-19, > 100 µM (inactive); in the assay with SF-295 it was 77.6 µM (inactive); in the assay with U-251 it was 94 µM (inactive); in the assay on NCI-H226, 22.5 µM (inactive). Also, the GI50 with CAKI-1 is > 100 µM (inactive); in the assay with HCC 2998 it was 29.7 µM (inactive); with SK-MEL-2 it was 49.5 µM (inactive); in the assay with RXF 393, 19 µM (inactive); in the assay on KM12 it was 31.3 µM (inactive); in the assay on M14 it was 46.9 µM (inactive). In addition, the GI50 is 39.5 µM (inactive) with OVCAR-8; 24.4 µM (inactive) with UO-31; 55.6 µM (inactive) with OVCAR-3; 77.8 µM (inactive) in the assay with HCT-116; 44 µM (inactive) in the assay with NCI-H522; > 100 µM (inactive) with K562. Besides, in the assay on PC-3, the GI50 was 64.6 µM (inactive).

In the case of `O=c1ccn(CC2(CO)CCC2)c(=O)[nH]1`, the GI50 in the assay on SR, in the assay on MCF7, in the assay on SF-295, in the assay with U-251, in the assay on NCI-H226 and in the assay with CAKI-1 was > 100 µM (inactive) each time. Further, the GI50 in the assay with HCC 2998, in the assay on SK-MEL-2, in the assay with RXF 393, in the assay on KM12, with OVCAR-8 and with UO-31 was > 100 µM (inactive) throughout. Also, the GI50 in the assay on OVCAR-3, with HCT-116, in the assay on NCI-H522, in the assay with K562 and in the assay on PC-3 was > 100 µM (inactive) throughout.

Turning to `Cc1ccc(-c2cc(-c3ccc(Cl)cc3)nc(/N=C3\C(=O)N(CN4CCOCC4)c4ccc(Cl)cc43)n2)cc1`, the GI50 with SR was 9.38 µM (inactive); with MCF7, 17.5 µM (inactive); in the assay with SNB-19, 34.8 µM (inactive); with SF-295, 35.7 µM (inactive); with U-251 it was 17.7 µM (inactive); in the assay on NCI-H226, 54.1 µM (inactive). Further, the GI50 in the assay on CAKI-1 is 23 µM (inactive); in the assay with HCC 2998, 19.1 µM (inactive); in the assay with SK-MEL-2, 20.1 µM (inactive); with RXF 393 it was 13.8 µM (inactive); with KM12 it was 22.2 µM (inactive); in the assay on M14, 26.4 µM (inactive). Further, the GI50 with OVCAR-8 is 20.9 µM (inactive); in the assay on UO-31, 24.9 µM (inactive); in the assay with OVCAR-3, 33.3 µM (inactive); in the assay on HCT-116 it was 17.4 µM (inactive); in the assay on NCI-H522, 15.4 µM (inactive); in the assay with K562, 10.5 µM (inactive). For the same compound, the GI50 in the assay with PC-3 is 30 µM (inactive).

`COC(=O)C1=C(C)NC(C)=C(C(=O)OC)C1c1cccc(NO)c1`: the GI50 with SR is > 100 µM (inactive); with MCF7, 19 µM (inactive); in the assay on SNB-19, > 100 µM (inactive); in the assay on SF-295, 25.9 µM (inactive); in the assay on U-251, 16.1 µM (inactive); in the assay with NCI-H226, 15.2 µM (inactive). Further, the GI50 in the assay with CAKI-1 is 13.2 µM (inactive); in the assay with HCC 2998, 56.8 µM (inactive); in the assay with SK-MEL-2 it was 15.2 µM (inactive); in the assay with RXF 393, 13.9 µM (inactive); with KM12, 15.9 µM (inactive); in the assay on M14, 18.9 µM (inactive). Moreover, the GI50 with OVCAR-8 is 16.4 µM (inactive); in the assay with UO-31 it was 11.5 µM (inactive); with OVCAR-3, 16 µM (inactive); with HCT-116, 13 µM (inactive); with NCI-H522 it was 7 µM (inactive); in the assay on K562, 4.76 µM (inactive). For the same compound, the GI50 in the assay on PC-3 was 15 µM (inactive).

Consider `Oc1cc2c3c(c1)CCCN3CCC2`, for which the GI50 in the assay with SR, in the assay with MCF7, with SNB-19, in the assay on SF-295, in the assay with U-251 and in the assay with NCI-H226 was > 10 µM (inactive) in each case. Besides, the GI50 with CAKI-1, with HCC 2998, in the assay on SK-MEL-2, in the assay on RXF 393, in the assay on KM12 and in the assay with M14 was > 10 µM (inactive) in each case. For the same compound, the GI50 in the assay with OVCAR-8, in the assay on OVCAR-3, in the assay with HCT-116, in the assay on NCI-H522, with K562 and with PC-3 was > 10 µM (inactive) each time.

Take `COc1ccc([C@@]23CCC(=O)C[C@@H]2N(C)CC3)cc1OC`: the GI50 in the assay on SR is 66.2 µM (inactive); in the assay with MCF7 it was > 100 µM (inactive); in the assay on SNB-19, > 100 µM (inactive); in the assay with SF-295 it was > 100 µM (inactive); in the assay with U-251, > 100 µM (inactive); in the assay on NCI-H226, > 100 µM (inactive). Moreover, the GI50 with CAKI-1, with HCC 2998, in the assay on SK-MEL-2, in the assay on RXF 393, in the assay with KM12 and in the assay with M14 was > 100 µM (inactive) throughout. Moreover, the GI50 in the assay with OVCAR-8, in the assay on UO-31, with OVCAR-3, in the assay on NCI-H522, in the assay on K562 and in the assay with PC-3 was > 100 µM (inactive) each time.

For `CCC1CCC2C3CC=C4CC(OC(C)=O)C(N)CC4(C)C3CCC12C` (centres undefined), the GI50 in the assay on SR was 2.25 µM (inactive); with MCF7, 6.41 µM (inactive); with SNB-19 it was 2.51 µM (inactive); with SF-295 it was 3.26 µM (inactive); with U-251, 1.86 µM (inactive); in the assay with NCI-H226 it was 20.2 µM (inactive). Besides, the GI50 was 8.55 µM (inactive) in the assay with CAKI-1; 1.59 µM (inactive) with HCC 2998; 3.97 µM (inactive) in the assay with SK-MEL-2; 1.85 µM (inactive) in the assay with RXF 393; 2.96 µM (inactive) in the assay on KM12; 1.82 µM (inactive) with M14. For the same compound, the GI50 in the assay on OVCAR-8 is 2.05 µM (inactive); in the assay on UO-31, 5.24 µM (inactive); in the assay with OVCAR-3, 5.85 µM (inactive); in the assay with HCT-116, 2.46 µM (inactive); in the assay on NCI-H522 it was 2.51 µM (inactive); in the assay on K562 it was 2.05 µM (inactive). In addition, in the assay with PC-3, the GI50 was 2.71 µM (inactive).

As to `COc1cc2ccc1OCc1cccc(n1)COc1ccc(cc1OC)/C=N\c1ccc(cc1)/N=C\2`, the GI50 in the assay on SR, with MCF7, in the assay with SNB-19, in the assay with SF-295, with U-251 and with NCI-H226 was > 100 µM (inactive) each time. Further, the GI50 in the assay on CAKI-1, in the assay on HCC 2998, in the assay with SK-MEL-2, with RXF 393, in the assay with KM12 and with M14 was > 100 µM (inactive) in each case. The GI50 in the assay with OVCAR-8, in the assay with UO-31, in the assay on OVCAR-3, in the assay with HCT-116, with NCI-H522 and with K562 was > 100 µM (inactive) each time. Further, the GI50 in the assay with PC-3 is > 100 µM (inactive).

Consider `O=CCOCc1cc2c(cc1Br)OCO2`, for which the GI50 in the assay on SR was 24.7 µM (inactive); in the assay on MCF7, 20.3 µM (inactive); in the assay with SF-295 it was > 100 µM (inactive); with U-251 it was 31 µM (inactive); in the assay with CAKI-1, 19.9 µM (inactive); in the assay on HCC 2998, > 100 µM (inactive). The GI50 in the assay on RXF 393 was 37 µM (inactive); in the assay on KM12, 33 µM (inactive); with M14, 20.3 µM (inactive); with OVCAR-8, 20.7 µM (inactive); in the assay with UO-31, 21.1 µM (inactive); with OVCAR-3 it was 17.3 µM (inactive). Further, the GI50 in the assay with HCT-116 was 21.6 µM (inactive); in the assay on NCI-H522 it was 15.7 µM (inactive); with K562 it was 44.6 µM (inactive); in the assay with PC-3, 21.4 µM (inactive).

For `N#Cc1sc2c(c1OC(=O)c1ccc(Cl)cc1)c(=O)n(-c1ccccc1)c(=S)n2-c1ccccc1`, the GI50 in the assay with SR is 19.1 µM (inactive); in the assay with MCF7, 23.1 µM (inactive); in the assay on SNB-19 it was 21.9 µM (inactive); with SF-295 it was 19.2 µM (inactive); with U-251, 11.1 µM (inactive); in the assay on NCI-H226, 26.7 µM (inactive). The GI50 with CAKI-1 was 27.3 µM (inactive); with HCC 2998, 21.5 µM (inactive); with RXF 393, 19.7 µM (inactive); in the assay on KM12 it was 14.9 µM (inactive); in the assay with M14, 20.4 µM (inactive); in the assay with OVCAR-8, 18.1 µM (inactive). Besides, the GI50 in the assay with OVCAR-3 was 17.1 µM (inactive); with HCT-116, 15.4 µM (inactive); in the assay on NCI-H522, 0.504 µM (active); in the assay with K562, 22 µM (inactive); with PC-3, 21.7 µM (inactive).
